Results on eleven compounds are retold here after patent publication US8975406B2, “Compound useful for the treatment of degenerative and inflammatory diseases” (Galapagos N.V., priority 2011, dated 2015).

Usually IC50 stands for the concentration that inhibits the measured activity by half.

Holding throughout (type): biochemical
In experiment [1] the target is T1, Recombinant human JAK1 (Homo sapiens, UniProt P23458).
T1 construct: catalytic domain (amino acids 866-1154; catalog number PV4774); purchased Invitrogen PV4774
T1 sequence (P23458 866-1154): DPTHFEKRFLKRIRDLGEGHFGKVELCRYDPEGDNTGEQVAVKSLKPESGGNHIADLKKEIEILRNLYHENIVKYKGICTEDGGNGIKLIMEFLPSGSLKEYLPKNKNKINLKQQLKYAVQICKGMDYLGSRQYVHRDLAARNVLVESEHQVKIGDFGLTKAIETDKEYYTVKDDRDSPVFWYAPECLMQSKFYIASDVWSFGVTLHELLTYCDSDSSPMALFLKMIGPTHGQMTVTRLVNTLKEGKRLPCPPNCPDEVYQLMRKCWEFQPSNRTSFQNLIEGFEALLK
Briefly: JAK1 Ulight-JAK1 peptide assay. As to conditions: Ulight-JAK1(tyr1023) peptide, 7 μM ATP. Here is the method:
Recombinant human JAK1 (catalytic domain, amino acids 866-1154; catalog number PV4774) was purchased from Invitrogen. 1 ng of JAK1 was incubated with 20 nM Ulight-JAK1(tyr1023) peptide (Perkin Elmer catalog number TRF0121) in kinase reaction buffer (25 mM MOPS pH6.8, 0.01% Brij-35, 5 mM MgCl2, 2 mM DTT, 7 μM ATP) with or without 4 μL containing test compound or vehicle (DMSO, 1% final concentration), in a total volume of 20 μL, in a white 384 Opti plate (Perkin Elmer, catalog number 6007290). After 60 min at room temperature, reactions were stopped by adding 20 μL/well of detection mixture (1× detection buffer (Perkin Elmer, catalog number CR97-100C), 0.5 nM Europium-anti-phosphotyrosine (PT66) (Perkin Elmer, catalog number AD0068), 10 mM EDTA). Readout is performed using the Envision with excitation at 320 nm and measuring emission at 615 nm (Perkin Elmer). Kinase activity was calculated by subtracting relative fluorescence units (RFU) obtained in the presence of a positive control inhibitor (10 μM staurosporine) from RFU obtained in the presence of vehicle. The ability of a test compound to inhibit this activity was determined as: Percentage inhibition=((RFU determined for sample with test compound present−RFU determined for sample with positive control inhibitor)divided by(RFU determined in the presence of vehicle−RFU determined for sample with positive control inhibitor))*100.
Dose dilution series were prepared for the compounds enabling the testing of dose-response effects in the JAK1 assay and the calculation of the IC50 for the compound. Each compound is routinely tested at concentration of 20 μM followed by a ⅕ serial dilution, 10 points in a final concentration of 1% DMSO. When potency of compound series increases, more dilutions are prepared and/or the top concentration are lowered (e.g. 5 μM, 1 μM). The data are expressed as the average IC50 from the assays±standard error of the mean.

Experiment [2] has as its target T2, Recombinant human JAK2 (Homo sapiens, UniProt O60674).
T2 construct: catalytic domain (amino acids 808-1132; catalog number PV4210); GST; purchased Invitrogen PV4210
Briefly: JAK2 Ulight-JAK1 peptide assay. As to conditions: Ulight-JAK1(tyr1023) peptide, 7.5 μM ATP. The procedure:
Recombinant human JAK2 (catalytic domain, amino acids […]; catalog number PV4210) was purchased from Invitrogen. 0.0125 mU of JAK2 was incubated with 25 nM Ulight-JAK1(tyr1023) peptide (Perkin Elmer catalog number TRF0121) in kinase reaction buffer (25 mM HEPES pH7.0, 0.01% Triton X-100, 7.5 mM MgCl2, 2 mM DTT, 7.5 μM ATP) with or without 4 μL containing test compound or vehicle (DMSO, 1% final concentration), in a total volume of 20 μL, in a white 384 Opti plate (Perkin Elmer, catalog number 6007290). After 60 min at room temperature, reactions were stopped by adding 20 μL/well of detection mixture (1× detection buffer (Perkin Elmer, catalog number CR97-100C), 0.5 nM Europium-anti-phosphotyrosine (PT66) (Perkin Elmer, catalog number AD0068), 10 mM EDTA). Readout is performed using the Envision with excitation at 320 nm and measuring emission at 615 nm (Perkin Elmer). Kinase activity was calculated by subtracting relative fluorescence units (RFU) obtained in the presence of a positive control inhibitor (10 μM staurosporine) from RFU obtained in the presence of vehicle. The ability of a test compound to inhibit this activity was determined as: Percentage inhibition=((RFU determined for sample with test compound present−RFU determined for sample with positive control inhibitor)divided by(RFU determined in the presence of vehicle−RFU determined for sample with positive control inhibitor))*100.
Dose dilution series were prepared for each compound enabling the testing of dose-response effects in the JAK2 assay and the calculation of the IC50 for the compound. Each compound is routinely tested at concentration of 20 μM followed by a ⅕ serial dilution, 10 points in a final concentration of 1% DMSO. When potency of compound series increases, more dilutions are prepared and/or the top concentration are lowered (e.g. 5 μM, 1 μM). The data are expressed as the average IC50 from the assays±standard error of the mean.

For experiment [3], the target named is T3, Recombinant human JAK3 catalytic domain (Homo sapiens, UniProt P52333).
T3 construct: catalytic domain (amino acids 795-1124; catalog number 08-046); purchased Carna Biosciences 08-046
T3 sequence (P52333 795-1124): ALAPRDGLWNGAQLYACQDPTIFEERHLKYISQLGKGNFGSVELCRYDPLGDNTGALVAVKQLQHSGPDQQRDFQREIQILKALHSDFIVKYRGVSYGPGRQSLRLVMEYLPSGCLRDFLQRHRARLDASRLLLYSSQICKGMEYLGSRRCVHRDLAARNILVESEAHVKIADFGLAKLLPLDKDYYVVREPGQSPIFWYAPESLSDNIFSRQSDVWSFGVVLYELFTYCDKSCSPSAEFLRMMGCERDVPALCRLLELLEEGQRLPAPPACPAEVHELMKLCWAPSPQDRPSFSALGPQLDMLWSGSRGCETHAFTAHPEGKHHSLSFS
Briefly: JAK3 inhibition assay. As to conditions: polyGT substrate, 33P-gamma-ATP filter assay, 1 μM ATP. The procedure:
Recombinant human JAK3 catalytic domain (amino acids 795-1124; catalog number 08-046) was purchased from Carna Biosciences. 0.5 ng JAK3 protein was incubated with 2.5 μg polyGT substrate (Sigma catalog number P0275) in kinase reaction buffer (25 mM Tris pH 7.5, 0.5 mM EGTA, 10 mM MgCl2, 2.5 mM DTT, 0.5 mM Na3VO4, 5 mM b-glycerolphosphate, 0.01% Triton X-100, 1 μM non-radioactive ATP, 0.25 μCi ^33P-gamma-ATP (Perkin Elmer, catalog number NEG602K001MC) final concentrations) with or without 5 μL containing test compound or vehicle (DMSO, 1% final concentration), in a total volume of 25 μL, in a polypropylene 96-well plate (Greiner, V-bottom). After 45 min at 30° C., reactions were stopped by adding 25 μL/well of 150 mM phosphoric acid. All of the terminated kinase reaction was transferred to prewashed (75 mM phosphoric acid) 96 well filter plates (Perkin Elmer catalog number 6005177) using a cell harvester (Perkin Elmer). Plates were washed 6 times with 300 μL per well of a 75 mM phosphoric acid solution and the bottom of the plates was sealed. 40 μL/well of Microscint-20 was added, the top of the plates was sealed and readout was performed using the Topcount (Perkin Elmer). Kinase activity was calculated by subtracting counts per min (cpm) obtained in the presence of a positive control inhibitor (10 μM staurosporine) from cpm obtained in the presence of vehicle. The ability of a test compound to inhibit this activity was determined as: Percentage inhibition=((cpm determined for sample with test compound present−cpm determined for sample with positive control inhibitor)divided by(cpm determined in the presence of vehicle−cpm determined for sample with positive control inhibitor))*100.
Dose dilution series were prepared for the compounds enabling the testing of dose-response effects in the JAK3 assay and the calculation of the IC50 for each compound. Each compound was routinely tested at concentration of 20 μM followed by a ⅕ serial dilution, 10 points in a final concentration of 1% DMSO. When potency of compound series increased, more dilutions were prepared and/or the top concentration was lowered (e.g. 5 μM, 1 μM).

T2 sequence (O60674 808-1132): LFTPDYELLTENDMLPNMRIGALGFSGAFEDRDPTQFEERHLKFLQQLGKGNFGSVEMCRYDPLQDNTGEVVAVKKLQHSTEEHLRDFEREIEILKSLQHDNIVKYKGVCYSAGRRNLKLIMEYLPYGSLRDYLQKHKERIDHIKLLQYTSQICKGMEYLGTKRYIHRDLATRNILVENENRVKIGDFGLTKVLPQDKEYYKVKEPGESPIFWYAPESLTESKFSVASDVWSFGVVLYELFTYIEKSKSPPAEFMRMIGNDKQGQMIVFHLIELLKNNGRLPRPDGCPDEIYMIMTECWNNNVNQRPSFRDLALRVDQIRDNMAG

With `O=C(Nc1nn2cccc(-c3ccc(C(=O)N4CCCCC4)cc3)c2c1Cl)C1CC1` [Compound 16, N-(3-chloro-4-(4-(piperidine-1-carbonyl)phenyl)pyrazolo[1,5-a]pyridin-2-yl)cyclopropanecarboxamide], the IC50 in experiment [1] was 101 to 500 nM; in experiment [2], greater than 1000 nM.
For `COC(=O)N1CCN(Cc2ccc(-c3cccn4nc(NC(C)=O)cc34)cc2)CC1` [Compound 22] the same measures were 101 to 500 nM and 101 to 500 nM.
The like results for `CC(=O)Nc1cc2c(-c3cnc(OCCn4cccn4)c(F)c3)cccn2n1` [Compound 30] were, in that order, 101 to 500 nM and 101 to 500 nM.
Consider `CC(=O)Nc1cc2c(-c3ccc(C(=O)N4COCC4(C)C)cc3)cccn2n1` [Compound 31, N-(4-(4-(4,4-dimethyloxazolidine-3-carbonyl)phenyl)pyrazolo[1,5-a]pyridin-2-yl)acetamide], for which the IC50 in experiment [1] and in experiment [2] was 101 to 500 nM throughout.
In the case of `CC(=O)Nc1cc2c(-c3ccc(C(=O)N4CCC4)cc3)cccn2n1` [Compound 32, N-(4-(4-(azetidine-1-carbonyl)phenyl)pyrazolo[1,5-a]pyridin-2-yl)acetamide], the IC50 in experiment [1] and in experiment [2] was 101 to 500 nM throughout.
Turning to `CC(=O)Nc1cc2c(-c3ccc(CC(=O)N4CCC4)cc3)cccn2n1` [Compound 33, N-(4-(4-(2-(azetidin-1-yl)-2-oxoethyl)phenyl)pyrazolo[1,5-a]pyridin-2-yl)acetamide], the IC50 was 101 to 500 nM in experiment [1], 101 to 500 nM in experiment [2] and greater than 1000 nM in experiment [3].
Take `CC(=O)Nc1cc2c(-c3ccc(CC(=O)N4C[C@@H](C)O[C@@H](C)C4)cc3)cccn2n1` [Compound 37, N-(4-(4-(2-((2S,6R)-2,6-dimethylmorpholino)-2-oxoethyl)phenyl)pyrazolo[1,5-a]pyridin-2-yl)acetamide]: the values for the half-inhibitory concentration (IC50) in experiment [1] and in experiment [2] were greater than 1000 nM and 101 to 500 nM, respectively.
For `CC(=O)Nc1cc2c(-c3ccc(C(=O)N4C[C@@H](C)O[C@@H](C)C4)cc3)cccn2n1` [Compound 39, N-(4-(4-((2S,6R)-2,6-dimethylmorpholine-4-carbonyl)phenyl)pyrazolo[1,5-a]pyridin-2-yl)acetamide] the same measures were 101 to 500 nM and 101 to 500 nM.
The like results for `CC(=O)Nc1cc2c(-c3ccc(C(=O)N4CCCCC4)cc3)cccn2n1` [Compound 40, N-(4-(4-(piperidine-1-carbonyl)phenyl)pyrazolo[1,5-a]pyridin-2-yl)acetamide] were, in that order, 101 to 500 nM and 101 to 500 nM.
For `CC(=O)Nc1cc2c(-c3ccc(C(=O)N4CC(F)(F)C4)cc3)cccn2n1` [Compound 41, N-(4-(4-(3,3-difluoroazetidine-1-carbonyl)phenyl)pyrazolo[1,5-a]pyridin-2-yl)acetamide] the same measures were 101 to 500 nM and 101 to 500 nM.
Take `CC(=O)Nc1cc2c(-c3ccc(C(=O)N4CCOCC4)cc3)cccn2n1` [Compound 42, N-(4-(4-(morpholine-4-carbonyl)phenyl)pyrazolo[1,5-a]pyridin-2-yl)acetamide]: the figures for the IC50 in experiment [1] and in experiment [2] were 501 to 1000 nM and 101 to 500 nM, respectively.
